Consider 25 substances from patent publication US12168763B2, “Microorganisms and methods for reducing bacterial contamination” (Melio Peptide Systems Inc., priority 2020, dated 2024).

“Also recorded” adds a separate entry of the source. Where no end group is shown, it is not given here.

Experiment [1] concerns L. reuteri CCUG 32624. Nature of the experiment: Soft-agar overlay screen of peptide-expressing yeast (BY4742).
In experiment [2] the test system is L. fermentum NCCB 46038. Described as above.
Experiment [3] concerns P. pentosaceus NCCB 31016. The description is as above. Conditions: soft-agar overlay, peptide-expressing yeast.
In experiment [4] the test system is E. faecium NCCB 86023. The description is as above.
Experiment [5] has as its system W. confusa CCUG30113. Described as above.
Experiment [6] has as its system W. confusa CCUG30943. The experiment is described as above.
The subject of experiment [7] is L. lactis NCCB 26066. The experiment is described as above.
Experiment [8] has as its system L. delbrueckii CCUG 34222. The description is as above.
The subject of experiment [9] is P. pentosaceus NCCB 31016. Nature of the experiment: Soft-agar overlay assay of S. cerevisiae M2 strain expressing pediocin PA-1 variants. Conditions: S. cerevisiae M2 transformants; compared to wild-type pediocin PA-1.
For experiment [10], the system named is L. delbrueckii CCUG 34222T. Described as above. Conditions: S. cerevisiae M2 transformants; compared to wild-type pediocin PA-1.
The test system of experiment [11] is L. fermentum NCCB 46038. The experiment can be described thus: Soft-agar overlay assay of S. cerevisiae BY4742 secreting persulcatusin variants from pHVXU plasmids. Conditions: alanine scanning of persulcatusin; relative to wild-type; soft-agar overlay.

Turning to Bactofencin A, in experiment [1], the “Inhibition, L. reuteri CCUG 32624” value is reported as “−”. In addition, the “Inhibition, L. fermentum NCCB 46038” value in experiment [2] is given as “+”. For the same substance, the “Inhibition, P. pentosaceus NCCB 31016” value in experiment [3] is listed as “+”. The “Inhibition, E. faecium NCCB 86023” value in experiment [4] is listed as “+”. Moreover, in experiment [5], the “Inhibition, W. confusa CCUG30113” value is listed as “−”. Further, the “Inhibition, W. confusa CCUG30943” value in experiment [6] is reported as “−”. The “Inhibition, L. lactis NCCB 26066” value in experiment [7] is given as “+”. Moreover, the “Inhibition, L. delbrueckii CCUG 34222” value in experiment [8] is “+”.
On to Coagulin A, for which, in [1], the “Inhibition, L. reuteri CCUG 32624” value is on record as “−”. For the same substance, the “Inhibition, L. fermentum NCCB 46038” value in [2] was “−”. Moreover, the “Inhibition, P. pentosaceus NCCB 31016” value in experiment [3] is “+”. Moreover, in [4], the “Inhibition, E. faecium NCCB 86023” value was “+”. Also, the “Inhibition, W. confusa CCUG30113” value in experiment [5] was “−”. Also, the “Inhibition, W. confusa CCUG30943” value in experiment [6] is recorded as “−”. The “Inhibition, L. lactis NCCB 26066” value in experiment [7] is given as “+”. For the same substance, the “Inhibition, L. delbrueckii CCUG 34222” value in experiment [8] is reported as “+”.
Consider “Engineered pediocin PA-1 with [K20A] (KYYGNGVTCGKHSCSVDWGAATTCIINNGAMAWATGGHQGNHKC; ends and bridges not checked; cysteine pairing not given here) [pediocin PA-1 K20A]”, for which, in experiment [9], the “Growth inhibition zone (halo) of P. pentosaceus” value is “Growth inhibition zones of P. pentosaceus were observable”. In experiment [10], the “Growth inhibition zone (halo) of L. delbrueckii” value is “Growth inhibition zones of L. delbrueckii were observable”.
The matching figures for “Engineered pediocin PA-1 with [S13A] (KYYGNGVTCGKHACSVDWGKATTCIINNGAMAWATGGHQGNHKC; ends and bridges not checked; cysteine pairing not given here) [pediocin PA-1 S13A]”: “Growth inhibition zones of P. pentosaceus were observable” and “Growth inhibition zones of L. delbrueckii were observable”.
Taken in the same sequence, the figures for “Engineered pediocin PA-1 with [S15A] (KYYGNGVTCGKHSCAVDWGKATTCIINNGAMAWATGGHQGNHKC; ends and bridges not checked; cysteine pairing not given here) [pediocin PA-1 S15A]” were “Growth inhibition zones of P. pentosaceus were observable” and “Growth inhibition zones of L. delbrueckii were observable”.
“Engineered pediocin PA-1 with [pediocin PA-1 G19A, Engineered pediocin PA-1 with [G19A]]”: in [9], the “Growth inhibition zone (halo) of P. pentosaceus” value is reported as “Growth inhibition zones of P. pentosaceus were observable”.
Consider “Engineered pediocin PA-1 with [pediocin PA-1 K1A, Engineered pediocin PA-1 with [K1A]]”, for which the “Growth inhibition zone (halo) of P. pentosaceus” value in experiment [9] is reported as “largest halo”. Moreover, the “Growth inhibition zone (halo) of L. delbrueckii” value in experiment [10] is on record as “largest halo”.
Turning to “Engineered pediocin PA-1 with [pediocin PA-1 K1A/G19A, Engineered pediocin PA-1 with [K1A/G19A]]”, the “Growth inhibition zone (halo) of P. pentosaceus” value in experiment [9] was “Growth inhibition zones of P. pentosaceus and L. delbrueckii were observable”. Moreover, the “Growth inhibition zone (halo) of L. delbrueckii” value in experiment [10] is “Growth inhibition zones of P. pentosaceus and L. delbrueckii were observable”.
Turning to “Engineered pediocin PA-1 with [pediocin PA-1 K1A/K20A, Engineered pediocin PA-1 with [K1A/K20A]]”, the “Growth inhibition zone (halo) of P. pentosaceus” value in [9] is “Growth inhibition zones of P. pentosaceus and L. delbrueckii were observable”. The “Growth inhibition zone (halo) of L. delbrueckii” value in experiment [10] is “Growth inhibition zones of P. pentosaceus and L. delbrueckii were observable”.
For the substance “Engineered pediocin PA-1 with [pediocin PA-1 K1A/S13A, Engineered pediocin PA-1 with [K1A/S13A]]”, the “Growth inhibition zone (halo) of P. pentosaceus” value in experiment [9] is “Growth inhibition zones of P. pentosaceus and L. delbrueckii were observable”. In addition, the “Growth inhibition zone (halo) of L. delbrueckii” value in [10] was “Growth inhibition zones of P. pentosaceus and L. delbrueckii were observable”.
On to “Engineered pediocin PA-1 with [pediocin PA-1 K1A/S15A, Engineered pediocin PA-1 with [K1A/S15A]]”, for which the “Growth inhibition zone (halo) of P. pentosaceus” value in experiment [9] is “Growth inhibition zones of P. pentosaceus and L. delbrueckii were observable”. The “Growth inhibition zone (halo) of L. delbrueckii” value in experiment [10] was “Growth inhibition zones of P. pentosaceus and L. delbrueckii were observable”.
For “Engineered pediocin PA-1 with [pediocin PA-1 K1A/T22A, Engineered pediocin PA-1 with [K1A/T22A]]”, in experiment [9], the “Growth inhibition zone (halo) of P. pentosaceus” value was “largest halo”.
Consider “Engineered pediocin PA-1 with [pediocin PA-1 K1T, Engineered pediocin PA-1 with [K1T]]”, for which the “Growth inhibition zone (halo) of L. delbrueckii” value in experiment [10] was “slightly bigger halo than wild-type pediocin PA-1; also recorded: Growth inhibition zones were observable”.
In the case of “Engineered pediocin PA-1 with [pediocin PA-1 T22A, Engineered pediocin PA-1 with [T22A]]”, the “Growth inhibition zone (halo) of P. pentosaceus” value in [9] is on record as “Growth inhibition zones of P. pentosaceus were observable”.
Take Enterocin A: the “Inhibition, L. reuteri CCUG 32624” value in experiment [1] is “−”. Further, the “Inhibition, L. fermentum NCCB 46038” value in [2] is listed as “−”. Moreover, the “Inhibition, P. pentosaceus NCCB 31016” value in experiment [3] is listed as “+”. The “Inhibition, E. faecium NCCB 86023” value in experiment [4] is given as “−”. The “Inhibition, W. confusa CCUG30113” value in experiment [5] is listed as “−”. The “Inhibition, W. confusa CCUG30943” value in [6] is given as “−”. The “Inhibition, L. lactis NCCB 26066” value in experiment [7] is “+”. Further, the “Inhibition, L. delbrueckii CCUG 34222” value in experiment [8] is “+”.
On to Hiracin JM79, for which the “Inhibition, L. reuteri CCUG 32624” value in experiment [1] is on record as “−”. In addition, the “Inhibition, L. fermentum NCCB 46038” value in experiment [2] is on record as “−”. Moreover, the “Inhibition, P. pentosaceus NCCB 31016” value in [3] is “−”. The “Inhibition, E. faecium NCCB 86023” value in experiment [4] is reported as “+”. For the same substance, the “Inhibition, W. confusa CCUG30113” value in [5] is recorded as “−”. Besides, in experiment [6], the “Inhibition, W. confusa CCUG30943” value is reported as “−”. Moreover, the “Inhibition, L. lactis NCCB 26066” value in experiment [7] is listed as “−”. For the same substance, the “Inhibition, L. delbrueckii CCUG 34222” value in experiment [8] is “−”.
With Leucocin C, the “Inhibition, L. reuteri CCUG 32624” value in experiment [1] is given as “−”. Further, in experiment [2], the “Inhibition, L. fermentum NCCB 46038” value is listed as “−”. The “Inhibition, P. pentosaceus NCCB 31016” value in experiment [3] is given as “+”. Besides, the “Inhibition, E. faecium NCCB 86023” value in [4] is “+”. The “Inhibition, W. confusa CCUG30113” value in experiment [5] is given as “−”. In experiment [6], the “Inhibition, W. confusa CCUG30943” value is “−”. For the same substance, the “Inhibition, L. lactis NCCB 26066” value in [7] is listed as “+”. Moreover, the “Inhibition, L. delbrueckii CCUG 34222” value in experiment [8] is recorded as “+”.
For “Q8A: persulcatusin (SEQ ID NO: 1) alanine-scan variant Q8A (GFGCPFNAGACHRHCRSIGRRGGYCAGLFKQTCTCYSR; listed as Ixodes persulcatus) [Mutation Q8A]”, the Change in activity entry in experiment [11] was “−”.
Still for that read-out and setting: for “Q31A: persulcatusin (SEQ ID NO: 1) alanine-scan variant Q31A (GFGCPFNQGACHRHCRSIGRRGGYCAGLFKATCTCYSR; listed as Ixodes persulcatus) [Mutation Q31A]” the value was “−”.
Regarding “S17A: persulcatusin (SEQ ID NO: 1) alanine-scan variant S17A (GFGCPFNQGACHRHCRAIGRRGGYCAGLFKQTCTCYSR; listed as Ixodes persulcatus) [Mutation S17A]”, the Change in activity result in experiment [11] is “−”.
Regarding “T32A: persulcatusin (SEQ ID NO: 1) alanine-scan variant T32A (GFGCPFNQGACHRHCRSIGRRGGYCAGLFKQACTCYSR; listed as Ixodes persulcatus) [Mutation T32A]”, the Change in activity entry in experiment [11] is recorded as “−”.
On the same count and under the same terms, for “T34A: persulcatusin (SEQ ID NO: 1) alanine-scan variant T34A (GFGCPFNQGACHRHCRSIGRRGGYCAGLFKQTCACYSR; listed as Ixodes persulcatus) [Mutation T34A]” the value was “−”.
On to Ubericin A, for which the “Inhibition, L. reuteri CCUG 32624” value in experiment [1] was “−”. In addition, in experiment [2], the “Inhibition, L. fermentum NCCB 46038” value is “−”. For the same substance, the “Inhibition, P. pentosaceus NCCB 31016” value in [3] is “+”. For the same substance, in experiment [4], the “Inhibition, E. faecium NCCB 86023” value is recorded as “−”. Moreover, the “Inhibition, W. confusa CCUG30113” value in experiment [5] is on record as “−”. Further, the “Inhibition, W. confusa CCUG30943” value in [6] is “−”. In addition, in experiment [7], the “Inhibition, L. lactis NCCB 26066” value is listed as “+”. Further, the “Inhibition, L. delbrueckii CCUG 34222” value in experiment [8] was “+”.
For “Y24A: persulcatusin (SEQ ID NO: 1) alanine-scan variant Y24A (GFGCPFNQGACHRHCRSIGRRGGACAGLFKQTCTCYSR; listed as Ixodes persulcatus) [Mutation Y24A]”, the Change in activity result in experiment [11] is “−”.
Consider “Y36A: persulcatusin (SEQ ID NO: 1) alanine-scan variant Y36A (GFGCPFNQGACHRHCRSIGRRGGYCAGLFKQTCTCASR; listed as Ixodes persulcatus) [Mutation Y36A]”, for which the Change in activity result in [11] is “−”.
